# Data: patent publication US20100086483A1, “METHOD OF MULTIDETECTOR COMPUTED TOMAGRAPHY” (Gilead Palo Alto, Inc., priority 2008, published 2010)
# Columns and labels:
# [1] = system: normal subjects; assay: PET myocardial blood flow / coronary flow reserve after regadenoson with and without caffeine, crossover study; type: in vivo, human
# Protocol: 15O water was used as the radionuclide in the PET scans. There was a 1- to 14-day washout period between dosing days. Blood samples and measures of safety were collected until 120 minutes after study drug administration.
# The CVT tracking number for the placebo capsules was 1341 (Leg 2).
# The primary efficacy measure was the log coronary flow reserve (CFR), which is the ratio of stress MBF after regadenoson dosing to the resting MBF.
# The data were also to be analyzed using Wilcoxon's rank-sum test.
# [2] = system: conscious dogs; assay: Effects of caffeine on regadenoson-induced coronary vasodilation and changes in hemodynamics in conscious dogs (Part II); type: in vivo, dog; settings: for change of maximum increase in CBF induced by regadenoson vs control: regadenoson 5 μg/kg IV, p>0.05
# Protocol: Sixteen chronically instrumented male mongrel dogs weighing from 22-30 kg were used in the study. The animal protocol was approved by the Institutional Animal Care and Use Committee of New York Medical College and conforms to the Guide for the Care and Use of Laboratory Animal by the United States National Institutes of Health.
# Dogs were sedated with acepromazine (0.3 mg/kg, IM) and anesthetized with pentobarbital sodium (25 mg/kg, IV). After intubation, dogs were artificially ventilated with room air. A thoracotomy was made in the fifth intercostal space using sterile techniques. A Tygon catheter (Cardiovascular Instruments, Wakefield, Mass.) was inserted into the descending thoracic aorta and another one was inserted into the left atrium. In 9 dogs, an ultrasound flow transducer (Transonic Systems, Ithaca, N.Y.) was placed around the left circumflex coronary artery. A solid-state pressure gauge (P6.5, Konisberg Instruments, Pasadena, Calif.) was placed into the left ventricle through the apex. The chest was closed in layers. The catheters and wires were tunneled subcutaneously and externalized through the skin at the back of the dog's neck. Dogs were allowed to recover from the surgery before experiments were performed, and were trained to lie on a table.
# Phasic arterial pressure was measured by connecting the aortic catheter to a strain gauge transducer (P23 ID, LDS Test and Measurement, Valley View, Ohio). Left ventricular pressures were measured by the solid pressure gauge. CBF (mL/min) was measured from an ultrasound flow transducer using a Transonic flowmeter (T206, Transonic Systems, Ithaca, N.Y.). Two indices were used to describe the regadenoson-induced coronary vasodilation: 1) the maximum increase in CBF and 2) the duration of the 2-fold increase in CBF (the period of time that CBF was elevated to a level ≧2-fold of baseline CBF). All pressure and flow data were acquired and analyzed using a Ponemah System (Version 3.30 or 4.20, LDS Test and Measurement, Valley View, Ohio). MAP and HR were calculated from phasic blood pressure, and LV dP/dtMax was calculated from the left ventricular systolic pressure.
# On the day of an experiment, a dog was placed on a table, where it lay quietly during the experiment. A catheter was inserted into a peripheral vein in the leg and attached to an infusion line to administer drugs without disturbing the dog. The experiment was begun after MAP, HR and CBF were stable.
# Each dog received an IV injection of 5 μg/kg of regadenoson. […] LVSP, LV dP/dtMax, MAP, HR and CBF were recorded continuously. Blood samples were taken from the left atrial catheter at 1, 3, 5, 15, 30, 45 and 60 min following injections of regadenoson.
# In 4 dogs, two doses of regadenoson (5 μg/kg, IV) were given 90 min apart (without blood sampling) to determine if there is tachyphylaxis of regadenoson-induced coronary vasodilation.
# The statistical significance of a difference between the value of a parameter at baseline and at the indicated time point after drug administration was determined using a One-Way Repeated Measures ANOVA followed by Tukey's Test. […] Results with p<0.05 were considered to be significant. […] All data are presented as Mean±SEM.
# [3] = caffeine 200 mg po, regadenoson 400 μg IV
# [4] = regadenoson 5 μg/kg IV 45 min after caffeine 1 mg/kg IV, 1 min
# [5] = regadenoson 5 μg/kg IV 45 min after caffeine 1 mg/kg IV, 2 min
# [6] = regadenoson 5 μg/kg IV 45 min after caffeine 1 mg/kg IV, 3 min
# [7] = regadenoson 5 μg/kg IV 45 min after caffeine 1 mg/kg IV, 20 min
# [8] = regadenoson 5 μg/kg IV 45 min after caffeine 2 mg/kg IV, 1 min
compound,measurement,setting,value
"Cn1c(=O)c2c(ncn2C)n(C)c1=O [Caffeine, caffeine]",change in CFR (95% confidence),"[1]; caffeine 200 mg po vs placebo, regadenoson 400 μg IV",< 20%
same,exponentiated lower limit of 90% confidence interval for log CFR (caffeine versus placebo difference),[1]; [3],0.80
same,exponentiated lower limit of 95% confidence interval for log CFR (caffeine versus placebo difference),[1]; [3],0.78
same,exponentiated upper limit of 90% confidence interval for log CFR (caffeine versus placebo difference),[1]; [3],1.06
same,exponentiated upper limit of 95% confidence interval for log CFR (caffeine versus placebo difference),[1]; [3],1.08
same,interaction of caffeine with regadenoson on CFR by sex,[1]; [3],no significant interaction
same,CFR (stress/rest),[1]; regadenoson 400 μg IV after caffeine 200 mg po,2.75±0.16
same,log CFR±SE,"[1]; regadenoson 400 μg IV after caffeine 200 mg po, n=40",0.95±0.06
same,HR,"[2]; 45 min after caffeine 1 mg/kg IV, before regadenoson (baseline)",74 ± 5 bpm
same,HR,"[2]; 45 min after caffeine 2 mg/kg IV, before regadenoson (baseline)",75 ± 5 bpm
same,HR,"[2]; 45 min after caffeine 4 mg/kg IV, before regadenoson (baseline)",81 ± 9 bpm
same,HR,"[2]; 45 min after caffeine 10 mg/kg IV, before regadenoson (baseline)",78 ± 6 bpm
same,baseline CBF before vs after caffeine treatment,"[2]; 45 min after caffeine 1, 2, 4 and 10 mg/kg",not significantly different
same,change of maximum increase in CBF induced by regadenoson vs control,[2]; caffeine 1 mg/kg IV,2±3%
same,change of maximum increase in CBF induced by regadenoson vs control,[2]; caffeine 2 mg/kg IV,−0.7±3%
same,change of maximum increase in CBF induced by regadenoson vs control,[2]; caffeine 4 mg/kg IV,−16±5%
same,change of maximum increase in CBF induced by regadenoson vs control,[2]; caffeine 10 mg/kg IV,−13±8%
same,effect on hemodynamics at 45 min following caffeine administration,"[2]; caffeine at 1, 2, 4 or 10 mg/kg",did not alter hemodynamics significantly
same,regadenoson-induced increase in LV dP/dtMax vs without caffeine,[2]; in the presence of caffeine 1 mg/kg,slightly greater
same,regadenoson-induced increase in LV dP/dtMax vs without caffeine,[2]; in the presence of caffeine 10 mg/kg,not altered
same,regadenoson-induced increase in LV dP/dtMax vs without caffeine,[2]; in the presence of caffeine at 2 and 4 mg/kg,slightly smaller
same,HR,"[2]; regadenoson 5 μg/kg IV 45 min after caffeine 1 mg/kg IV, 0.5 min",126 ± 7 bpm
same,HR,[2]; [4],135 ± 9 bpm
same,MAP,[2]; [4],100 ± 4 mm Hg
same,HR,[2]; [5],131 ± 12 bpm
same,MAP,[2]; [5],102 ± 4 mm Hg
same,HR,[2]; [6],119 ± 9 bpm
same,MAP,[2]; [6],101 ± 5 mm Hg
same,HR,"[2]; regadenoson 5 μg/kg IV 45 min after caffeine 1 mg/kg IV, 4 min",110 ± 4 bpm
same,HR,"[2]; regadenoson 5 μg/kg IV 45 min after caffeine 1 mg/kg IV, 5 min",106 ± 7 bpm
same,HR,"[2]; regadenoson 5 μg/kg IV 45 min after caffeine 1 mg/kg IV, 10 min",89 ± 7 bpm
same,HR,"[2]; regadenoson 5 μg/kg IV 45 min after caffeine 1 mg/kg IV, 15 min",87 ± 7 bpm
same,HR,[2]; [7],81 ± 8 bpm
same,MAP,[2]; [7],102 ± 4 mm Hg
same,HR,"[2]; regadenoson 5 μg/kg IV 45 min after caffeine 2 mg/kg IV, 0.5 min",121 ± 10 bpm
same,HR,[2]; [8],125 ± 10 bpm
same,MAP,[2]; [8],102 ± 7 mm Hg
same,HR,"[2]; regadenoson 5 μg/kg IV 45 min after caffeine 2 mg/kg IV, 2 min",122 ± 5 bpm
same,HR,"[2]; regadenoson 5 μg/kg IV 45 min after caffeine 2 mg/kg IV, 3 min",110 ± 3 bpm
same,HR,"[2]; regadenoson 5 μg/kg IV 45 min after caffeine 2 mg/kg IV, 4 min",106 ± 4 bpm
same,HR,"[2]; regadenoson 5 μg/kg IV 45 min after caffeine 2 mg/kg IV, 5 min",97 ± 3 bpm
same,HR,"[2]; regadenoson 5 μg/kg IV 45 min after caffeine 2 mg/kg IV, 10 min",84 ± 5 bpm
same,HR,"[2]; regadenoson 5 μg/kg IV 45 min after caffeine 2 mg/kg IV, 15 min",85 ± 6 bpm
same,HR,"[2]; regadenoson 5 μg/kg IV 45 min after caffeine 2 mg/kg IV, 20 min",84 ± 5 bpm
same,HR,"[2]; regadenoson 5 μg/kg IV 45 min after caffeine 4 mg/kg IV, 0.5 min",126 ± 12 bpm
same,HR,"[2]; regadenoson 5 μg/kg IV 45 min after caffeine 4 mg/kg IV, 1 min",114 ± 11 bpm
same,HR,"[2]; regadenoson 5 μg/kg IV 45 min after caffeine 4 mg/kg IV, 2 min",106 ± 12 bpm
same,HR,"[2]; regadenoson 5 μg/kg IV 45 min after caffeine 4 mg/kg IV, 3 min",102 ± 7 bpm
same,HR,"[2]; regadenoson 5 μg/kg IV 45 min after caffeine 4 mg/kg IV, 4 min",94 ± 8 bpm
same,HR,"[2]; regadenoson 5 μg/kg IV 45 min after caffeine 4 mg/kg IV, 5 min",94 ± 7 bpm
same,HR,"[2]; regadenoson 5 μg/kg IV 45 min after caffeine 4 mg/kg IV, 10 min",85 ± 8 bpm
same,HR,"[2]; regadenoson 5 μg/kg IV 45 min after caffeine 4 mg/kg IV, 15 min",85 ± 8 bpm
same,HR,"[2]; regadenoson 5 μg/kg IV 45 min after caffeine 4 mg/kg IV, 20 min",87 ± 7 bpm
same,HR,"[2]; regadenoson 5 μg/kg IV 45 min after caffeine 10 mg/kg IV, 0.5 min",115 ± 12 bpm
same,HR,"[2]; regadenoson 5 μg/kg IV 45 min after caffeine 10 mg/kg IV, 1 min",102 ± 6 bpm
same,HR,"[2]; regadenoson 5 μg/kg IV 45 min after caffeine 10 mg/kg IV, 2 min",106 ± 11 bpm
same,HR,"[2]; regadenoson 5 μg/kg IV 45 min after caffeine 10 mg/kg IV, 3 min",96 ± 7 bpm
same,HR,"[2]; regadenoson 5 μg/kg IV 45 min after caffeine 10 mg/kg IV, 4 min",94 ± 8 bpm
same,HR,"[2]; regadenoson 5 μg/kg IV 45 min after caffeine 10 mg/kg IV, 5 min",93 ± 5 bpm
same,HR,"[2]; regadenoson 5 μg/kg IV 45 min after caffeine 10 mg/kg IV, 10 min",88 ± 7 bpm
same,HR,"[2]; regadenoson 5 μg/kg IV 45 min after caffeine 10 mg/kg IV, 15 min",88 ± 6 bpm
same,HR,"[2]; regadenoson 5 μg/kg IV 45 min after caffeine 10 mg/kg IV, 20 min",86 ± 4 bpm
